# Experimental data taken from the C3SDB collision cross section collection.
# Several values for one entry are separate records, joined by “and”; a condition that tells them apart may be missing. Equal entries are not always repeated.
# Details: [M+Na]+; instrument: DT; single field
row,collision cross section (N2),SMILES
1,308.93 Å²,CCCCC/C=C\CCCCCCCC(=O)OC[C@H](COC(=O)CCCCCCC/C=C\CCCCCCCCC)OC(=O)CCCCCCC/C=C\CCCCC [TG(49:3)]
2,322.77 Å² and 324.86 Å²,CCCC/C=C\CCCCCCCC(=O)OC[C@H](COC(=O)CCCCCCCCC/C=C\CCCCCCCC)OC(=O)CCCCCCCCC/C=C\CCCCCCCC [TG(54:3)]

# Details: [M+HCOO]-; instrument: DT; single field, calibrated with Agilent tune mix (Agilent)
row,collision cross section (N2) [Å²],SMILES
1,303,CCCCCCCCCCCCC=CC[C@@H](O)[C@H](COP(=O)([O-])OCC[N+](C)(C)C)NC(=O)CCCCCCCCCCCCCCCCCCCCCCC [SM(42:1)]
2,300.3,CCCCCCCCCCCCC=CC[C@@H](O)[C@H](COP(=O)([O-])OCC[N+](C)(C)C)NC(=O)CCCCCCCCCCCCCCCCCCCCCC [SM(41:1)]
3,292.1,CCCCCCCCCCCCC=CC[C@@H](O)[C@H](COP(=O)([O-])OCC[N+](C)(C)C)NC(=O)CCCCCCCCCCCCCCCCCCC [SM(38:1)]

# Same assay, conditions: [M+H]+; instrument: DT; single field, calibrated with Agilent tune mix (Agilent)
row,collision cross section (N2) [Å²],SMILES
1,304.2,CCCCCCCCCCCCC=CC[C@@H](O)[C@H](COP(=O)([O-])OCC[N+](C)(C)C)NC(=O)CC=CCCCCCCCCCCCCCCCCCCCC [SM(42:2)]
2,285.1,CCCCCCCCCCCCC=CC[C@@H](O)[C@H](COP(=O)([O-])OCC[N+](C)(C)C)NC(=O)CCCCCCCCCCCCCCCC [SM(35:1)]
3,302.9,CCCCCCCCCCCCC=CC[C@@H](O)[C@H](COP(=O)([O-])OCC[N+](C)(C)C)NC(=O)CCCCCCCCCCCCCCCCCCCCCC [SM(41:1)]

# Same assay, conditions: [M+NH4]+; instrument: DT; single field, calibrated with Agilent tune mix (Agilent)
row,SMILES,collision cross section (N2) [Å²]
1,CCCC/C=C\CCCCCCCC(=O)OC[C@H](COC(=O)CCCCCCC/C=C\CCCCCCCCC)OC(=O)CCCCCCC/C=C\CCCCCCCCC [TG(52:3)],320.2
2,CCCCCCCCCCCCCCCCCCCC(=O)OC[C@@H](COC(=O)CCCCCCCCCCC)OC(=O)CCCCCCCCCCCCCCCCCCC [TG(52:0)],323.4
3,CCCCC/C=C\C/C=C\C/C=C\C/C=C\CCCCCC(=O)OC[C@@H](COC(=O)CCCCCCCCCCCCC)OC(=O)CCCCCCC/C=C\CCCCCCC [TG(53:5)],317.4
4,CCCCCCCC/C=C\CCCCCCCC(=O)OC[C@@H](COC(=O)CCCCCCCCCCC)OC(=O)CCCCCCCCCCC [TG(42:1)],288.5
5,CCCC/C=C\CCCCCCCC(=O)OC[C@H](COC(=O)CCCCCCCCCCCCCCCCCCC)OC(=O)CCCCCCCCCCCCCCCCCCC [TG(54:1)],328.4
6,CCCCCCC/C=C\CCCCCCCC(=O)OC[C@@H](COC(=O)CCCCCCCCCCC)OC(=O)CCCCCCC/C=C\CCCCCCC [TG(46:2)],300.4
7,CCCCC/C=C\CCCCCCCC(=O)OC[C@H](COC(=O)CCCCCCCCC/C=C\CCCCCCCC)OC(=O)CCCCCCCCC/C=C\CCCCCCCC [TG(55:3)],327.5
8,CCCCC/C=C\CCCCCCCC(=O)OC[C@H](COC(=O)CCCCCCC/C=C\CCCCCCCCC)OC(=O)CCCCCCC/C=C\CCCCC [TG(49:3)],307.8
9,CCCC/C=C\CCCCCCCC(=O)OC[C@H](COC(=O)CCCCCCCCC/C=C\CCCCCCCC)OC(=O)CCCCCCCCC/C=C\CCCCCCCC [TG(54:3)],326.5

# Second part, the compound after the results:
row,collision cross section (N2) [Å²],SMILES
1,325.6,CC/C=C\C/C=C\C/C=C\C/C=C\C/C=C\CCCC(=O)OC[C@@H](COC(=O)CCCCCCCCCCCCCCCCC)OC(=O)CCCC/C=C\C/C=C\C/C=C\CCCCC [TG(56:8)]
2,339.4,CCCCC/C=C\C/C=C\C/C=C\CCCCCCCCC(=O)OC[C@@H](COC(=O)CCCCCCCCCCCCCCCCC)OC(=O)CCCCCCCCC/C=C\C/C=C\CCCCC [TG(60:5)]
3,332.8,CCCCCCCCCC/C=C\CCCCCCCCCC(=O)OC[C@@H](COC(=O)CCCCCCCCCCC)OC(=O)CCCCCCCCC/C=C\CCCCCCCCCC [TG(56:2)]
4,336.8,CCCCC/C=C\C/C=C\C/C=C\CCCCCCC(=O)O[C@H](COC(=O)CCCCCCCCCCCCCCC)COC(=O)CCCCCCCCCCCCCCCCCCCCC [TG(58:3)]
5,330,CC/C=C\C/C=C\C/C=C\C/C=C\C/C=C\CCCCCC(=O)OC[C@@H](COC(=O)CCCCCCC/C=C\CCCCCC)OC(=O)CCCCCC/C=C\C/C=C\C/C=C\CCCCC [TG(58:9)]
6,327.2,CC/C=C\C/C=C\C/C=C\C/C=C\C/C=C\CCCCCC(=O)OC[C@@H](COC(=O)CCCCCCCCCCCCCCC)OC(=O)CCC/C=C\C/C=C\C/C=C\C/C=C\C/C=C\CC [TG(58:10)]
7,326,CCCCC/C=C\C/C=C\C/C=C\C/C=C\CCCCCC(=O)OC[C@@H](COC(=O)CCCCCCCCCCC)OC(=O)CCCCCCCCCCCCCCCCCCCC [TG(55:4)]

# Same assay, conditions: [M+Na]+; instrument: DT; single field, calibrated with Agilent tune mix (Agilent)
row,collision cross section (N2) [Å²],SMILES
1,282.6,CCCCCC/C=C\CCCCCCCCCC(=O)OC[C@H](COP(=O)([O-])OCC[N+](C)(C)C)OC(=O)CCCCCCCCCCCCC [PC(32:1)]
2,304.4,CCCCCCCCCCCCC=CC[C@@H](O)[C@H](COP(=O)([O-])OCC[N+](C)(C)C)NC(=O)CC=CCCCCCCCCCCCCCCCCCCCC [SM(42:2)]
3,285.6,CCCCCCCCCCCCC=CC[C@@H](O)[C@H](COP(=O)([O-])OCC[N+](C)(C)C)NC(=O)CCCCCCCCCCCCCCCC [SM(35:1)]
4,302.8,CCCCCCCCCCCCC=CC[C@@H](O)[C@H](COP(=O)([O-])OCC[N+](C)(C)C)NC(=O)CCCCCCCCCCCCCCCCCCCCCC [SM(41:1)]

# Details: [M+K]+; instrument: DT; stepped-field
row,collision cross section (N2) [Å²],SMILES
1,286.5,C=CCCCCCCCCCCCCC(=O)O[C@H](COC(=O)CCCCCCCCCCCCCCC)COP(=O)([O-])OCC[N+](C)(C)C [PC(31:1)]

# Same assay, conditions: [M+Na]+; instrument: DT; stepped-field
row,collision cross section (N2) [Å²],SMILES
1,308.2,CCCCCCCCCCCCC=CC[C@@H](O)[C@H](COP(=O)([O-])OCC[N+](C)(C)C)NC(=O)CC=CCCCCCCCCCCCCCCCCCCCC [SM(42:2)]
2,289.1,CCCCCCCCCCCCC=CC[C@@H](O)[C@H](COP(=O)([O-])OCC[N+](C)(C)C)NC(=O)CCCCCCCCCCCCCCCC [SM(35:1)]
3,309.3,CCCCCCCCCCCCC=CC[C@@H](O)[C@H](COP(=O)([O-])OCC[N+](C)(C)C)NC(=O)CCCCCCCCCCCCCCCCCCCCCCC [SM(42:1)]
4,306.3,CCCCCCCCCCCCC=CC[C@@H](O)[C@H](COP(=O)([O-])OCC[N+](C)(C)C)NC(=O)CCCCCCCCCCCCCCCCCCCCCC [SM(41:1)]
5,298.5,CCCCCCCCCCCCC=CC[C@@H](O)[C@H](COP(=O)([O-])OCC[N+](C)(C)C)NC(=O)CCCCCCCCCCCCCCCCCCC [SM(38:1)]
